# According to US11814379B2, “Cyano quinoline amide compounds as HER2 inhibitors and methods of use” (DANA-FARBER CANCER INSTITUTE, INC., priority 2018, dated 2023):
# Key:
# [1] = system: H1781 (HER2 InsVC); experiment: Antiproliferative activities in lung cancer cells, H1781; assay type: cell-based; settings: NCI-H1781
# Method: (§1) Cell growth and growth inhibition were evaluated by […] (MTS) assay. A total of 3,000-4,000 cells were plated per well in 96-well plates and treated with each drug (at a dose range from 1 nM to 10 μM) for 3 days. Each experimental point was conducted in six replicates and all tests were repeated more than three times. IC50 data was obtained from a nonlinear regression model with sigmoidal dose response using GraphPad Prism (GraphPad Software, Inc.).
# (§2) All ERBB insertion mutations were generated by using the Quikchange II XL Site-Directed Mutagenesis Kit (Agilent Tech) according to the manufacturer's protocol. The insertion mutations and wildtype form of human EGFR and HER2 were transduced into Ba/F3 cells by retroviral infection followed by treatment of puromycin and withdrawal of interleukin-3 for selection. Transformed Ba/F3 cells and the NSCLC cell line H1781 (with HER2 insertion VC) were cultured in Roswell Park Memorial Institute-1640 medium (Gibco) with 10% fetal bovine serum and 1% penicillin/streptomycin (Gibco). Wild-type EGFR Ba/F3 cells were cultured in the same media supplemented with EGF (10 ng/ml).
# (§3) Cell growth inhibition was assessed by MTS assay for Ba/F3 and H1781 cells. A total of 3,000-4,000 cells were seeded for per well in 96-well plates, and were exposed to representative compounds of the application (1 nM to 10 μM) for 72 hours. All experimental points included 6 wells. […] The growth curves were fitted using a nonlinear regression model with sigmoidal dose response.
# (§4) Activities of representative compounds of the present application in inhibiting HER2 were tested by MTS assay (for Ba/F3 cells and H1781 cells). For each assay, a total of 3,000-4,000 cells were seeded per well in 96-well plates and were exposed to indicated compounds with a concentration of […] for 72 hours.
# [2] = system: H1819 (Her2 amplification); experiment: Antiproliferative activities in lung cancer cells, H1819; assay type: cell-based; settings: NCI-H1819
# Method: as §1
# [3] = system: Calu-3 (Her2 amplification); experiment: Antiproliferative activities in lung cancer cells, Calu-3; assay type: cell-based; settings: Homo sapiens
# Method: as §1
# [4] = system: DFCI429 (Her2 amplification); experiment: Antiproliferative activities in lung cancer cells, DFCI429; assay type: cell-based
# Method: as §1
# [5] = system: HER2 mutations; settings: Phase I and II clinical data; cited from earlier work
# [6] = molecular target: T1, HER2 insYVMA (A775_G776insYVMA) (Homo sapiens, UniProt P04626, INS775YVMA); settings: afatinib as a single agent; dacomitinib phase II trial, 13 patients; cited from earlier work
# T1 construct: no response in all 13 patients with HER2 insYVMA (A775_G776insYVMA); host or cells: patients' tumours
# [7] = molecular target: WT EGFR (Homo sapiens, UniProt P00533); experiment: Biochemical activities, WT EGFR
# [8] = molecular target: WT HER2 (Homo sapiens, UniProt P04626); experiment: Biochemical activities, WT HER2
# [9] = molecular target: Ba/F3 cells WT EGFR (Homo sapiens, UniProt P00533); experiment: Antiproliferative activities (MTS assay), Ba/F3 cells WT EGFR; assay type: cell-based; settings: 72 hours
# Method: as §1
# as §2, with “Transformed Ba/F3 cells and the NSCLC cell line H1781 (with HER2 insertion VC) were cultured in Roswell Park Memorial Institute-1640 medium (Gibco) with 10% fetal bovine serum and 1% penicillin/streptomycin (Gibco).” left out
# as §3, §4
# [10] = molecular target: T2, Ba/F3 cells WT HER2 (Homo sapiens, UniProt P04626); experiment: Antiproliferative activities (MTS assay), Ba/F3 cells WT HER2; assay type: cell-based; settings: Ba/F3 cells, 72 hours, MTS
# T2 construct: Antiproliferative Activities (Ba/F3 cells) WT HER2; other: Ba/F3 cells, 72 hours, MTS
# Method: as §1
# as §2, with “Transformed Ba/F3 cells and the NSCLC cell line H1781 (with HER2 insertion VC) were cultured in Roswell Park Memorial Institute-1640 medium (Gibco) with 10% fetal bovine serum and 1% penicillin/streptomycin (Gibco).” left out
# as §3, §4
# [11] = system: Ba/F3 cells WT HER2; experiment: as above; assay type: cell-based, human; settings: for EGFR EC50/HER2 EC50: Ba/F3 cells, ratio WT EGFR to WT HER2
# Method: as §1
# as §2, with “Transformed Ba/F3 cells and the NSCLC cell line H1781 (with HER2 insertion VC) were cultured in Roswell Park Memorial Institute-1640 medium (Gibco) with 10% fetal bovine serum and 1% penicillin/streptomycin (Gibco).” left out
# as §3, §4
# [12] = molecular target: Ba/F3 cells HER2 InsYVMA (Homo sapiens, UniProt P04626, DUP772-775, cells depend on it); experiment: Antiproliferative activities (MTS assay), Ba/F3 cells HER2 InsYVMA; assay type: cell-based; settings: 72 hours
# Method: as §1
# as §2, with “Transformed Ba/F3 cells and the NSCLC cell line H1781 (with HER2 insertion VC) were cultured in Roswell Park Memorial Institute-1640 medium (Gibco) with 10% fetal bovine serum and 1% penicillin/streptomycin (Gibco).” left out
# as §3, §4
# [13] = molecular target: Ba/F3 cells HER2 InsGSP (Homo sapiens, UniProt P04626, DUP778-780, cells depend on it); experiment: Antiproliferative activities (MTS assay), Ba/F3 cells HER2 InsGSP; assay type: cell-based; settings: 72 hours
# Method: as §1
# as §2, with “Transformed Ba/F3 cells and the NSCLC cell line H1781 (with HER2 insertion VC) were cultured in Roswell Park Memorial Institute-1640 medium (Gibco) with 10% fetal bovine serum and 1% penicillin/streptomycin (Gibco).” left out
# as §3, §4
# [14] = molecular target: Ba/F3 cells HER2 InsVC (Homo sapiens, UniProt P04626, DELINS776-776VC, cells depend on it); experiment: Antiproliferative activities (MTS assay), Ba/F3 cells HER2 InsVC; assay type: cell-based; settings: 72 hours
# Method: as §1
# as §2, with “Transformed Ba/F3 cells and the NSCLC cell line H1781 (with HER2 insertion VC) were cultured in Roswell Park Memorial Institute-1640 medium (Gibco) with 10% fetal bovine serum and 1% penicillin/streptomycin (Gibco).” left out
# as §3, §4
# [15] = molecular target: Ba/F3 cells HER2 InsWLV (Homo sapiens, UniProt P04626, DELINS774-774WLV, cells depend on it); experiment: Antiproliferative activities (MTS assay), Ba/F3 cells HER2 InsWLV; assay type: cell-based; settings: 72 hours
# Method: as §1
# as §2, with “Transformed Ba/F3 cells and the NSCLC cell line H1781 (with HER2 insertion VC) were cultured in Roswell Park Memorial Institute-1640 medium (Gibco) with 10% fetal bovine serum and 1% penicillin/streptomycin (Gibco).” left out
# as §3, §4
# Chain of WT EGFR (P00533 25-1210): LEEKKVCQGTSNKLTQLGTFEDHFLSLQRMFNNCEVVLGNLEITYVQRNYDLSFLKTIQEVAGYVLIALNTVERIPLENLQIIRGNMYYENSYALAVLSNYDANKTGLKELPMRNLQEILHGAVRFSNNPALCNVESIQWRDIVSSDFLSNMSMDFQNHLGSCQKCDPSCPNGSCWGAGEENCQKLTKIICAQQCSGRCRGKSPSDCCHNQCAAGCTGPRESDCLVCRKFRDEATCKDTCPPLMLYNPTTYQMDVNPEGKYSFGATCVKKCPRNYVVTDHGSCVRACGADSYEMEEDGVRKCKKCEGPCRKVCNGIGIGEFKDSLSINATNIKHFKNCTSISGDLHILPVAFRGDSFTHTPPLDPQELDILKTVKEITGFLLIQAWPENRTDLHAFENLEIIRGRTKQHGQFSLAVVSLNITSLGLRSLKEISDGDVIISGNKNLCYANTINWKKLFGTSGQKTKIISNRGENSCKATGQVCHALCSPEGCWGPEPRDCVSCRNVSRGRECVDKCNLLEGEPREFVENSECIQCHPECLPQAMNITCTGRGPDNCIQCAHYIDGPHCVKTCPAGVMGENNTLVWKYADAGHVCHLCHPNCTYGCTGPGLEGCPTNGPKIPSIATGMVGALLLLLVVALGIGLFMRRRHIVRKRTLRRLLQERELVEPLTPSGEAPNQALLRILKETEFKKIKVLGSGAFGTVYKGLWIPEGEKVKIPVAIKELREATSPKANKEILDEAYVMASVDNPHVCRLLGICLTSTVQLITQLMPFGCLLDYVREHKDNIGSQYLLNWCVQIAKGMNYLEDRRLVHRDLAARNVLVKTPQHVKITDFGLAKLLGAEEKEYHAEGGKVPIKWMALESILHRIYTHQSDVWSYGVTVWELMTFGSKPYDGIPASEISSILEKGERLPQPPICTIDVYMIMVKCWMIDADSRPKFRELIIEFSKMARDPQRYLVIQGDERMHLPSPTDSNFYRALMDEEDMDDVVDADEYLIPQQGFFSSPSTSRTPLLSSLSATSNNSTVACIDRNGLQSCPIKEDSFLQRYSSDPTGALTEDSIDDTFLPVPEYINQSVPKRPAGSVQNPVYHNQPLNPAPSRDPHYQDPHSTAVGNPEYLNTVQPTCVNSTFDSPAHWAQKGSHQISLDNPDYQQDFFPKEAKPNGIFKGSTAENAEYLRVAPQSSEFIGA
# Chain of Ba/F3 cells WT EGFR (P00533 whole entry, change not shown): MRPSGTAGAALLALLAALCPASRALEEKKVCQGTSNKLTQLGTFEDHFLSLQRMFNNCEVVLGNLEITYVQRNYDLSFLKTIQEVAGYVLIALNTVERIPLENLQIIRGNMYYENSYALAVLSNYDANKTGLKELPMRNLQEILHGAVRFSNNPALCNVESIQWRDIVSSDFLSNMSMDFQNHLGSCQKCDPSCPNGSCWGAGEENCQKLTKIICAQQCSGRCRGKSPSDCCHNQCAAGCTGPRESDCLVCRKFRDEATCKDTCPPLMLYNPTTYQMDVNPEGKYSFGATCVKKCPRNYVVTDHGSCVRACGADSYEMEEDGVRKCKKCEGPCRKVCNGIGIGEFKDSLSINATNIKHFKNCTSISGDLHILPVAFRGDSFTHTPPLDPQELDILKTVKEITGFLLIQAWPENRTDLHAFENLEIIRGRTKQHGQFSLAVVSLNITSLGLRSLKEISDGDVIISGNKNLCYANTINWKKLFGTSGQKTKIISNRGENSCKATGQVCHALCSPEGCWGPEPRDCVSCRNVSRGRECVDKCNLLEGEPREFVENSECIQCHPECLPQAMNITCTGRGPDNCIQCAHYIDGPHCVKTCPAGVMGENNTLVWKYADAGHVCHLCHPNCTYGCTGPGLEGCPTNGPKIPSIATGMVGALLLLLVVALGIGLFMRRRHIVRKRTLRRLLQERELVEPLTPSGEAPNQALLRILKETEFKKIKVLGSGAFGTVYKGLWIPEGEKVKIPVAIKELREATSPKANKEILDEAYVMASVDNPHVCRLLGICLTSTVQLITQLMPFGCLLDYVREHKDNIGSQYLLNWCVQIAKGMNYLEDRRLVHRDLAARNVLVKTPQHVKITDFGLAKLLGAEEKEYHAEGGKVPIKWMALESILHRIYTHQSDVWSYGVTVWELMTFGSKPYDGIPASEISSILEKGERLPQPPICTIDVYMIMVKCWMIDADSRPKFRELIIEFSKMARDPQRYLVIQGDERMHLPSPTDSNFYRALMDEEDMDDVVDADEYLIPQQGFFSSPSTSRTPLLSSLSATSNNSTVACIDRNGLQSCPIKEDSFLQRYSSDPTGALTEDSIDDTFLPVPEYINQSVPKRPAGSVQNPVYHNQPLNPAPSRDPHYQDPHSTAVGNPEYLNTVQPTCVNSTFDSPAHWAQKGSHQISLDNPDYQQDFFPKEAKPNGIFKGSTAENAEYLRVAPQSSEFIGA
Structure (SMILES),EC50 [1] [nM],EC50 [2] [nM],EC50 [3] [nM],EC50 [4] [nM],response to treatment of patients harboring HER2 mutations [5],response of patients with HER2 insYVMA [6],EC50 [7] [nM],EC50 [8] [nM],EC50 [9] [nM],EC50 [10] [nM],EGFR EC50/HER2 EC50 [11],inhibition of HER2 and its mutant over EGFR ([11]; FIG. 4 bar graph),EC50 [12] [nM],EC50 [13] [nM],EC50 [14] [nM],EC50 [15] [nM]
CN(C)C/C=C/C(=O)Nc1cc2c(Nc3ccc(F)c(Cl)c3)ncnc2cc1O[C@H]1CCOC1 [Afatinib],100 to 250,< 100,100 to 250,100 to 250,partially responded,durable responses,–,–,–,–,–,–,–,–,–,–
"CCOc1cc2ncc(C#N)c(Nc3ccc(Oc4ccn5ncnc5c4)c(C)c3)c2cc1NC(=O)/C=C/CN(C)C [Compound 1, (E)-N-(4-((4-([1,2,4]triazolo[1,5-a]pyridin-7-yloxy)-3-methylphenyl)amino)-3-cyano-7-ethoxyquinolin-6-yl)-4-(dimethylamino)but-2-enamide]",100 to 250,< 100,< 100,100 to 250,–,–,100 to 250,< 100,250 to 500,< 100,32,selective inhibition,< 100,< 100,< 100,< 100
CCOc1cc2ncc(C#N)c(Nc3ccc(Oc4ccn5ncnc5c4)c(F)c3)c2cc1NC(=O)/C=C/CN(C)C [Compound 2],–,–,–,–,–,–,100 to 250,< 100,> 500,< 100,222,–,< 100,< 100,250 to 500,100 to 250
CCOc1cc2ncc(C#N)c(Nc3ccc(Oc4ccn5ncnc5c4)c(Cl)c3)c2cc1NC(=O)/C=C/CN(C)C [Compound 3],–,–,–,–,–,–,–,–,250 to 500,< 100,87,–,< 100,< 100,< 100,< 100
CCOc1cc2ncc(C#N)c(Nc3ccc(Oc4ccn5ccnc5c4)c(C)c3)c2cc1NC(=O)/C=C/CN(C)C [Compound 4],–,–,–,–,–,–,–,–,> 500,< 100,49,–,< 100,< 100,< 100,100 to 250
CCOc1cc2ncc(C#N)c(Nc3ccc(Oc4ccn5nccc5c4)c(C)c3)c2cc1NC(=O)/C=C/CN(C)C [Compound 5],–,–,–,–,–,–,–,–,100 to 250,< 100,6,–,< 100,< 100,< 100,100 to 250
CCOc1cc2ncc(C#N)c(Nc3ccc(Oc4ccc5ccn(C)c5c4)c(C)c3)c2cc1NC(=O)/C=C/CN(C)C [Compound 6],–,–,–,–,–,–,–,–,> 500,< 100,178,–,< 100,< 100,< 100,100 to 250
"Cc1cc(Nc2ncnc3ccc(NC4=NC(C)(C)CO4)cc23)ccc1Oc1ccn2ncnc2c1 [Irbinitinib, reference compound]",≥ 500,100 to 250,≥ 500,≥ 500,–,–,250 to 500,< 100,> 500,250 to 500,18,–,100 to 250,100 to 250,> 500,250 to 500
COc1cc2ncnc(Nc3ccc(F)c(Cl)c3)c2cc1NC(=O)/C=C/CN1CCCCC1 [dacomitinib],–,–,–,–,partially responded,no response,–,–,–,–,–,–,–,–,–,–
